The compounds below were run against recombinant human HPK1 (Homo sapiens (Human), UniProt Q92918) (assay: HPK1 kinase assay (Promega ADP-Glo kinase assay)). Details: In vitro activity against HPK1, 5 ng HPK1, MBP substrate, ATP 25 μM, 30° C. 40 minutes.
Type: biochemical
Protocol: HPK1 kinase activity was measured by Promega's ADP-Glo™ kinase assay. In this assay, 5 ng of recombinant human HPK1 (signalchem) is incubated with 5 μL of compounds (0.5% DMSO), 5 μL of MBP (0.5 μg/μl) and 5 μL of ATP (25 μM) in buffer (40 mM Tris, 7.5; 20 mM MgCl2; 0.1 mg/ml BSA; 50 μM DTT.). The assay was started by incubating the reaction mixture in a 96-well plate at 30° C. for 40 minutes. After the incubation, 25 μL ADP-Glo reagent was added and the reaction was incubated at room temperature for 40-min to stop the reaction and degrade residual ATP. The ADP product was then converted to ATP by adding 50 μL per well of detection reagent. Luminescence was detected after 30-min room temperature incubation with the Molecular device I3X plate reader. The IC50 values were calculated from a series of percent inhibition values determined at a range of inhibitor concentration using software routines as implemented in the GraphPad Prism 7 software and SigmaPlot13.0.

Sequence of recombinant human HPK1 (Q92918 whole entry): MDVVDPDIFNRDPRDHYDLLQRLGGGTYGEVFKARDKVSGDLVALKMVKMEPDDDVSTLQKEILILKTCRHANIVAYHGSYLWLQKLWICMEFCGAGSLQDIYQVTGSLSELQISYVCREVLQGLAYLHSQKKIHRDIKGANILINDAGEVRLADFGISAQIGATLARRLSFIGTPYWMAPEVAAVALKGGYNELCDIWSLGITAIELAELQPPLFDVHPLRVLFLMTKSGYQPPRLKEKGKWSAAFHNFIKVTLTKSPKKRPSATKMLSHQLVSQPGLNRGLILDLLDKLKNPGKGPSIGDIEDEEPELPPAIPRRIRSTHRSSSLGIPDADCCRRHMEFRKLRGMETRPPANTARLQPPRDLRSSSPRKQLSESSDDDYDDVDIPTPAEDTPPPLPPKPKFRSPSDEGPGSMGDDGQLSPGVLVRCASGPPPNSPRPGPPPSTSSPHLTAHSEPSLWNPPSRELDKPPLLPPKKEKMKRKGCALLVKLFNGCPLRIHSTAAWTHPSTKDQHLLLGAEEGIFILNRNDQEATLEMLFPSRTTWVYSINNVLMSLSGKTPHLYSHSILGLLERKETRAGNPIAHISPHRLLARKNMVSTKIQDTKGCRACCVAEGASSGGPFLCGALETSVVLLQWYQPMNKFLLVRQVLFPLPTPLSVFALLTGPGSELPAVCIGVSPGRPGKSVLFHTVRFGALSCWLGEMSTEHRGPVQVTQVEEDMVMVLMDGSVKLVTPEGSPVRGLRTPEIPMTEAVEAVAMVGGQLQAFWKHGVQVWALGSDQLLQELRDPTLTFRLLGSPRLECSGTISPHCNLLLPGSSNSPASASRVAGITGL

| Structure (SMILES) | IC50 [nM] |
| --- | --- |
| Cc1c(F)c(C(O)C2CC2)c2[nH]ncc2c1-c1cn2cc(NC(=O)[C@@H]3C[C@@H]3F)nc2cn1 (stereo partly drawn) [Example 1, (1S,2S)-N-(6-(7-(cyclopropyl(hydroxy)methyl)-6-fluoro-5-methyl-1H-indazol-4-yl)imidazo[1,2-a]pyrazin-2-yl)-2-fluorocyclopropane-1-carboxamide] | < 100 |
| COC(c1c(F)c(C)c(-c2cn3cc(NC(=O)[C@@H]4C[C@@H]4F)nc3cn2)c2cn[nH]c12)C1CC1 (stereo partly drawn) [Example 2, (1S,2S)-N-(6-(7-(cyclopropyl(methoxy)methyl)-6-fluoro-5-methyl-1H-indazol-4-yl)imidazo[1,2-a]pyrazin-2-yl)-2-fluorocyclopropane-1-carboxamide] | < 100 |
| CCOC(C)c1c(F)c(C)c(-c2cn3cc(NC(=O)[C@@H]4C[C@@H]4F)nc3cn2)c2cn[nH]c12 (stereo partly drawn) [Example 3, (1S,2S)-N-(6-(7-(1-ethoxyethyl)-6-fluoro-5-methyl-1H-indazol-4-yl)imidazo[1,2-a]pyrazin-2-yl)-2-fluorocyclopropane-1-carboxamide] | 101 to 500 |
| COCC(C)c1c(F)c(C)c(-c2cn3cc(NC(=O)[C@@H]4C[C@@H]4F)nc3cn2)c2cn[nH]c12 (stereo partly drawn) [Example 4, (1S,2S)-2-fluoro-N-(6-(6-fluoro-7-(1-methoxypropan-2-yl)-5-methyl-1H-indazol-4-yl)imidazo[1,2-a]pyrazin-2-yl)cyclopropane-1-carboxamide] | < 100 |
| Cc1c(F)c(C(C)C(F)F)c2[nH]ncc2c1-c1cn2cc(NC(=O)[C@@H]3C[C@@H]3F)nc2cn1 (stereo partly drawn) [Example 5, (1S,2S)-N-(6-(7-(1,1-difluoropropan-2-yl)-6-fluoro-5-methyl-1H-indazol-4-yl)imidazo[1,2-a]pyrazin-2-yl)-2-fluorocyclopropane-1-carboxamide] | < 100 |
| Cc1c(F)c(C2CCOC2)c2[nH]ncc2c1-c1cn2cc(NC(=O)[C@@H]3C[C@@H]3F)nc2cn1 (stereo partly drawn) [Example 6, (1S,2S)-2-fluoro-N-(6-(6-fluoro-5-methyl-7-(tetrahydrofuran-3-yl)-1H-indazol-4-yl)imidazo[1,2-a]pyrazin-2-yl)cyclopropane-1-carboxamide] | < 100 |
| Cc1c(F)c(C2=CC(=O)CC2)c2[nH]ncc2c1-c1cn2cc(NC(=O)[C@@H]3C[C@@H]3F)nc2cn1 [Example 7, (1S,2S)-2-fluoro-N-(6-(6-fluoro-5-methyl-7-(3-oxocyclopent-1-en-1-yl)-1H-indazol-4-yl)imidazo[1,2-a]pyrazin-2-yl)cyclopropane-1-carboxamide] | 101 to 500 |
| Cc1c(F)c(C(C)CO)c2[nH]ncc2c1-c1cn2cc(NC(=O)[C@@H]3C[C@@H]3F)nc2cn1 (stereo partly drawn) [Example 8, (1S,2S)-2-fluoro-N-(6-(6-fluoro-7-(1-hydroxypropan-2-yl)-5-methyl-1H-indazol-4-yl)imidazo[1,2-a]pyrazin-2-yl)cyclopropane-1-carboxamide] | < 100 |
| Cc1c(F)c(C2CCCC2O)c2[nH]ncc2c1-c1cn2cc(NC(=O)[C@@H]3C[C@@H]3F)nc2cn1 (stereo partly drawn) [Example 9, (1S,2S)-2-fluoro-N-(6-(6-fluoro-7-(2-hydroxycyclopentyl)-5-methyl-1H-indazol-4-yl)imidazo[1,2-a]pyrazin-2-yl)cyclopropane-1-carboxamide] | < 100 |
| CNC(C)c1c(F)c(C)c(-c2cn3cc(NC(=O)[C@@H]4C[C@@H]4F)nc3cn2)c2cn[nH]c12 (stereo partly drawn) [Example 10, (1S,2S)-2-fluoro-N-(6-(6-fluoro-5-methyl-7-(1-(methylamino)ethyl)-1H-indazol-4-yl)imidazo[1,2-a]pyrazin-2-yl)cyclopropane-1-carboxamide] | 101 to 500 |
| Cc1c(F)c(C2=CCCC2)c2[nH]ncc2c1-c1cn2cc(NC(=O)[C@@H]3C[C@@H]3F)nc2cn1 [Example 11, (1S,2S)-N-(6-(7-(cyclopent-1-en-1-yl)-6-fluoro-5-methyl-1H-indazol-4-yl)imidazo[1,2-a]pyrazin-2-yl)-2-fluorocyclopropane-1-carboxamide] | < 100 |
| Cc1c(F)c(C(C)N(C)C)c2[nH]ncc2c1-c1cn2cc(NC(=O)[C@@H]3C[C@@H]3F)nc2cn1 (stereo partly drawn) [Example 12, (1S,2S)-N-(6-(7-(1-(dimethylamino)ethyl)-6-fluoro-5-methyl-1H-indazol-4-yl)imidazo[1,2-a]pyrazin-2-yl)-2-fluorocyclopropane-1-carboxamide] | 501 to 1000 |
| Cc1c(F)c(C(C)CN(C)C)c2[nH]ncc2c1-c1cn2cc(NC(=O)[C@@H]3C[C@@H]3F)nc2cn1 (stereo partly drawn) [Example 13, (1S,2S)-N-(6-(7-(1-(dimethylamino)propan-2-yl)-6-fluoro-5-methyl-1H-indazol-4-yl)imidazo[1,2-a]pyrazin-2-yl)-2-fluorocyclopropane-1-carboxamide] | 101 to 500 |
| CC(C)N(c1c(F)c(Cl)c(-c2cn3cc(NC(=O)[C@@H]4C[C@@H]4F)nc3cn2)c2cn[nH]c12)C1OC(C(=O)O)C(O)C(O)C1O (stereo partly drawn) [Example 14, 6-((5-chloro-6-fluoro-4-(2-((1S,2S)-2-fluorocyclopropane-1-carboxamido)imidazo[1,2-a]pyrazin-6-yl)-1H-indazol-7-yl)(isopropyl)amino)-3,4,5-trihydroxytetrahydro-2H-pyran-2-carboxylic acid] | < 100 |
| Cc1c(F)c(C2=CC(O)CC2)c2[nH]ncc2c1-c1cn2cc(NC(=O)[C@@H]3C[C@@H]3F)nc2cn1 (stereo partly drawn) [Example 15, (1S,2S)-2-fluoro-N-(6-(6-fluoro-7-(3-hydroxycyclopent-1-en-1-yl)-5-methyl-1H-indazol-4-yl)imidazo[1,2-a]pyrazin-2-yl)cyclopropane-1-carboxamide] | < 100 |
| COC1CCCC1c1c(F)c(C)c(-c2cn3cc(NC(=O)[C@@H]4C[C@@H]4F)nc3cn2)c2cn[nH]c12 (stereo partly drawn) [Example 16, (1S,2S)-2-fluoro-N-(6-(6-fluoro-7-(2-methoxycyclopentyl)-5-methyl-1H-indazol-4-yl)imidazo[1,2-a]pyrazin-2-yl)cyclopropane-1-carboxamide] | < 100 |
| CN(C)c1c(F)c(C(F)F)c(-c2cn3cc(NC(=O)[C@@H]4C[C@@H]4F)nc3cn2)c2cn[nH]c12 [Example 17, (1S,2S)-N-(6-(5-(difluoromethyl)-7-(dimethylamino)-6-fluoro-1H-indazol-4-yl)imidazo[1,2-a]pyrazin-2-yl)-2-fluorocyclopropane-1-carboxamide] | < 100 |
| COC(=O)C1OC(N(c2c(F)c(Cl)c(-c3cn4cc(NC(=O)[C@@H]5C[C@@H]5F)nc4cn3)c3cn[nH]c23)C(C)C)C(OC(C)=O)C(OC(C)=O)C1OC(C)=O (stereo partly drawn) [Example 18, 2-((5-chloro-6-fluoro-4-(2-((1S,2S)-2-fluorocyclopropane-1-carboxamido)imidazo[1,2-a]pyrazin-6-yl)-1H-indazol-7-yl)(isopropyl)amino)-6-(methoxycarbonyl)tetrahydro-2H-pyran-3,4,5-triyl triacetate] | 101 to 500 |
| O=C(Nc1cn2cc(-c3c(C(F)F)c(F)c(C(O)C4CC4)c4[nH]ncc34)ncc2n1)[C@@H]1C[C@@H]1F (stereo partly drawn) [Example 19, (1S,2S)-N-(6-(7-(cyclopropyl(hydroxy)methyl)-5-(difluoromethyl)-6-fluoro-1H-indazol-4-yl)imidazo[1,2-a]pyrazin-2-yl)-2-fluorocyclopropane-1-carboxamide] | < 100 |
| CC(C)Nc1c(F)c(Cl)c(-c2cn3cc(NC(=O)[C@@H]4C[C@@H]4C(=O)O)nc3cn2)c2cn[nH]c12 [Example 20, (1S,2R)-2-((6-(5-chloro-6-fluoro-7-(isopropylamino)-1H-indazol-4-yl)imidazo[1,2-a]pyrazin-2-yl)carbamoyl)cyclopropane-1-carboxylic acid] | < 100 |
| Cc1c(F)c(C(C2CC2)N2C(=O)c3ccccc3C2=O)c2[nH]ncc2c1-c1cn2cc(NC(=O)[C@@H]3C[C@@H]3F)nc2cn1 (stereo partly drawn) [Example 21, (1S,2S)-N-(6-(7-(cyclopropyl(1,3-dioxoisoindolin-2-yl)methyl)-6-fluoro-5-methyl-1H-indazol-4-yl)imidazo[1,2-a]pyrazin-2-yl)-2-fluorocyclopropane-1-carboxamid] | < 100 |
| Cc1c(F)c(C(C)CN2C(=O)c3ccccc3C2=O)c2[nH]ncc2c1-c1cn2cc(NC(=O)[C@@H]3C[C@@H]3F)nc2cn1 (stereo partly drawn) [Example 22, (1S,2S)-N-(6-(7-(1-(1,3-dioxoisoindolin-2-yl)propan-2-yl)-6-fluoro-5-methyl-1H-indazol-4-yl)imidazo[1,2-a]pyrazin-2-yl)-2-fluorocyclopropane-1-carboxamide] | < 100 |
| Cc1c(F)c(C(N)C2CC2)c2[nH]ncc2c1-c1cn2cc(NC(=O)[C@@H]3C[C@@H]3F)nc2cn1 (stereo partly drawn) [Example 23, (1S,2S)-N-(6-(7-(amino(cyclopropyl)methyl)-6-fluoro-5-methyl-1H-indazol-4-yl)imidazo[1,2-a]pyrazin-2-yl)-2-fluorocyclopropane-1-carboxamide] | < 100 |
| Cc1c(F)c(C(C)CN)c2[nH]ncc2c1-c1cn2cc(NC(=O)[C@@H]3C[C@@H]3F)nc2cn1 (stereo partly drawn) [Example 24, (1S,2S)-N-(6-(7-(1-aminopropan-2-yl)-6-fluoro-5-methyl-1H-indazol-4-yl)imidazo[1,2-a]pyrazin-2-yl)-2-fluorocyclopropane-1-carboxamide] | < 100 |
| Cc1c(F)c(C(C)N)c2[nH]ncc2c1-c1cn2cc(NC(=O)[C@@H]3C[C@@H]3F)nc2cn1 (stereo partly drawn) [Example 25, (1S,2S)-N-(6-(7-(1-aminoethyl)-6-fluoro-5-methyl-1H-indazol-4-yl)imidazo[1,2-a]pyrazin-2-yl)-2-fluorocyclopropane-1-carboxamide] | 101 to 500 |

From US20250197406A1, “INDAZOLES AS HEMATOPOIETIC PROGENITOR KINASE 1 (HPK1) INHIBITORS AND METHODS FOR USING SAME” (1ST Biotherapeutics, Inc., priority 2022, published 2025)
